Reference: US4122184A, “Benzimidazole insecticides” (priority 1977, dated 1978)
Values joined by “and” are separate entries in the source; they are usually repeats but may differ in a detail not shown here. Identical values can stand only once.

Legend:
Squash Bug Adults = assay: Field trial, contact poison test; type: in vivo; design: key: 0-9 rating: 0 = 0-10% mortality, 9 = 91-100% mortality
How it was run: (§1)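 Mortality after direct spraying was scored at 24, 48 and 72 hours where applicable, using a 0–9 rating tied to 10% bands. Plants bearing insects received atomized compound at 10 psi over a range of concentrations.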

Alfalfa Weevil Larvae [1] = assay: Field trial, topical application; type: in vivo
Experimental: (§2) The results are read at 24, 48, and 72 hours when applicable. The rating scale is 0 to 9 where 0 = 0-10 percent and 9 = 91-100 percent mortality.
In a variation of the above test, 1 microliter of a test solution containing a predetermined number of micrograms of benzimidazole was applied directly to larvae or adult insects.
Using the above methods, field trials were carried out against species of 5 orders of insects. The results, which are summarized in the following tables, give the average mortality for the particular insect with a given benzimidazole for each concentration employed. […] These tables contain all results obtained during the summer trials.

Picnic Beetle [2] = assay: Field trial (first summer), contact; type: in vivo; settings: 250 ppm
From the text: (§3) Infested plants are placed in 6 oz. prescription bottles filled with water to keep them from wilting. Cellucotton is wrapped around the plant stem and squeezed into the bottle neck to prevent the insects from drowning.
(§4) A DeVilbiss Special Atomizer (5004) is used at 10 psi to spray the test plant with different concentrations of compounds. The atomizer is held at arm's length to prevent blowing the insects off the host plant. After treating, the bottles are placed on a table covered with brown wrapping paper to catch the dead insects as they drop from the plant. The plants are spaced so the leaves or plants are not touching one another.
as §2
(§5) During the previous summer similar field trials were conducted employing the same tests as heretofore but with some additional species of insects not included in the later tests. The results listed below are for tests in which an insect mortality was established by a given application route and at a given concentration in a particular test. The same 0 - 9 scoring system is used as is the designation of compounds by alphabetical symbols.

Milkweed Beetle = assay: Field trial (first summer), contact; type: in vivo; settings: 125 ppm
From the text: as §3, §4, §2, §5

Picnic Beetle [3] = assay: Field trial (first summer), topical; type: in vivo; settings: .078125 μg/μl
How it was run: (§6)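 Field trial from the first summer in which 1 µl of test solution holding a set number of micrograms of benzimidazole was applied topically to larvae or adult insects. Mortality at a given route and concentration was scored on a 0–9 scale.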

Confused Flour Beetle = assay: Field trial (first summer), topical; type: in vivo
How it was run: as §6

Asparagus Beetles Adults [4] = assay: Field trial, contact poison test; type: in vivo
How it was run: as §1

Boll Weevil = assay: Field trial (first summer), topical; type: in vivo, Anthonomus grandis
How it was run: as §6

[5] = system: Striped Cucumber Beetle Adults; assay: Field trial, stomach poison test; type: in vivo; design: key: mortality rating on a 0 to 9 scale
How it was run: (§7)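 Spray (10 psi) or dip leaves from infested plants in test solution; air-dry; put in Petri dish; add 5 or 10 insects; score mortality 0–9 at 24/48/72 h. 1–2 reps, usually 2–3 rates.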

[6] = system: Southern Corn Rootworm Adults; assay: Field trial, stomach poison test; type: in vivo; design: key: mortality rating on a 0 to 9 scale
How it was run: as §7

Aphids - Tulip Tree = assay: Field trial, stomach poison test; type: in vivo
How it was run: as §7

Aphids - Apple = assay: Field trial, stomach poison test; type: in vivo
How it was run: as §7

[7] = system: Potato Flea Beetle Adults; assay: Field trial, stomach poison test; type: in vivo
How it was run: as §7

Alfalfa Weevil Larvae [8] = assay: Field trial, stomach poison test; type: in vivo
How it was run: as §7

Aphids - Sour Gum = assay: Field trial, stomach poison test; type: in vivo
How it was run: as §7

Asparagus Beetles Adults [9] = assay: Field trial, stomach poison test; type: in vivo
How it was run: as §7

Meadow Spittlebug = assay: Field trial, stomach poison test; type: in vivo
How it was run: as §7

House Fly = assay: Housefly (Contact) Test; type: in vivo, Musca domestica (Diptera); settings: 24 h
Melon Aphid = Melon Aphid Test; type: in vivo, Aphis gossypii (Hemiptera); settings: 24 h
From the text: Four blue hubbard squash seeds are planted per container in vermiculite and the containers watered from the bottom. After 6 days, the two weakest plants are cut off and one cotyledon and the primary leaves are removed from each of the two remaining plants. The remaining cotyledon is infested with 100 melon aphids from a stock colony by pinning the cotyledon against an aphid-infested squash cotyledon from the colony and allowing the aphids to transfer. After transfer, the colony leaf is removed. Forty-eight hours later, the infested leaves are sprayed to wetting with formulations containing graded amounts of the insecticide using a DeVilbiss atomizer at 10 psi held at 12-15 inches from the plant. Controls consist of two infested, unsprayed squash plants and two infested plants sprayed to wetting with a formulation containing 100 ppm malathion as a reference standard. The mortality is estimated 24 hours after spraying by observation using a 10 power dissecting microscope. The same rating scale is used as before.

O=[N+]([O-])c1cc(C(F)(F)F)cc2nc(C(F)(F)F)[nH]c12 [A, 2,6-bis(trifluoromethyl)-4-nitrobenzimidazole]
average mortality rating (Squash Bug Adults; 125 ppm): 0 (0-10 percent) | average mortality rating (Squash Bug Adults; 250 ppm): 6 | average mortality rating (Squash Bug Adults; 500 ppm): 9 (91-100 percent mortality) | average mortality rating (Squash Bug Adults; 750 ppm): 9 (91-100 percent mortality) | average mortality rating (Alfalfa Weevil Larvae [1]; 0.03 μg/μl): 2 | average mortality rating (Alfalfa Weevil Larvae [1]; 0.07 μg/μl): 2 | average mortality rating (Alfalfa Weevil Larvae [1]; 0.1 μg/μl): 1 | insect mortality rating (Picnic Beetle [2]): 9 (91-100 percent mortality) | insect mortality rating (Milkweed Beetle): 9 (91-100 percent mortality) | insect mortality rating (Picnic Beetle [3]): 9 (91-100 percent mortality) | insect mortality rating (Confused Flour Beetle; .078125 μg/μl): 9 (91-100 percent mortality) | average mortality rating (Asparagus Beetles Adults [4]; 10 ppm): 7 | average mortality rating (Asparagus Beetles Adults [4]; 25 ppm): 7 | average mortality rating (Asparagus Beetles Adults [4]; 50 ppm): 8 | insect mortality rating (Boll Weevil; .078125 μg/μl): 9 (91-100 percent mortality) | average mortality rating ([5]; 10 ppm): 1 | average mortality rating ([5]; 25 ppm): 3 | average mortality rating ([5]; 50 ppm): 6 | average mortality rating ([5]; 100 ppm): 5 | average mortality rating ([6]; 25 ppm): 4 | average mortality rating ([6]; 50 ppm): 6 | average mortality rating ([6]; 100 ppm): 7 | average mortality rating (Aphids - Tulip Tree; 25 ppm): 8 | average mortality rating (Aphids - Tulip Tree; 50 ppm): 5 | average mortality rating (Aphids - Tulip Tree; 100 ppm): 8 | average mortality rating (Aphids - Apple; 25 ppm): 1 | average mortality rating (Aphids - Apple; 50 ppm): 4 | average mortality rating (Aphids - Apple; 100 ppm): 4 | average mortality rating ([7]; 10 ppm): 9 (91-100 percent mortality) | average mortality rating ([7]; 25 ppm): 6 | average mortality rating ([7]; 50 ppm): 9 (91-100 percent mortality) | average mortality rating ([7]; 100 ppm): 9 (91-100 percent mortality) | average mortality rating (Alfalfa Weevil Larvae [8]; 125 ppm): 7 | average mortality rating (Alfalfa Weevil Larvae [8]; 250 ppm): 7 | average mortality rating (Alfalfa Weevil Larvae [8]; 500 ppm): 7 | average mortality rating (Aphids - Sour Gum; 25 ppm): 7 | average mortality rating (Aphids - Sour Gum; 50 ppm): 9 (91-100 percent mortality) | average mortality rating (Aphids - Sour Gum; 100 ppm): 9 (91-100 percent mortality) | average mortality rating (Asparagus Beetles Adults [9]; 5 ppm): 0 (0-10 percent) | average mortality rating (Asparagus Beetles Adults [9]; 10 ppm): 3 | average mortality rating (Asparagus Beetles Adults [9]; 25 ppm): 9 (91-100 percent mortality) | average mortality rating (Meadow Spittlebug; 10 ppm): 2 | average mortality rating (Meadow Spittlebug; 25 ppm): 0 (0-10 percent) | average mortality rating (Meadow Spittlebug; 50 ppm): 1

CCCCCCOC(=O)n1c(C(F)(F)F)nc2c([N+](=O)[O-])cc(C(F)(F)F)cc21 [E, n-hexyl 2,6-bis(trifluoromethyl)-4-nitro-1-benzimidazolecarboxylate]
mortality rating (House Fly; 10 ppm): 4.5 | mortality rating (House Fly; 50 ppm): 1.5 | average mortality rating (Squash Bug Adults; 125 ppm): 0 (0-10 percent) | average mortality rating (Squash Bug Adults; 250 ppm): 2 | average mortality rating (Squash Bug Adults; 500 ppm): 3 | average mortality rating (Squash Bug Adults; 750 ppm): 6 | average mortality rating (Alfalfa Weevil Larvae [1]; 0.03 μg/μl): 2 | average mortality rating (Alfalfa Weevil Larvae [1]; 0.07 μg/μl): 2 | average mortality rating (Alfalfa Weevil Larvae [1]; 0.1 μg/μl): 4 | insect mortality rating (Picnic Beetle [2]): 9 (91-100 percent mortality) | insect mortality rating (Milkweed Beetle): 9 (91-100 percent mortality) | insect mortality rating (Picnic Beetle [3]): 9 (91-100 percent mortality) | insect mortality rating (Confused Flour Beetle; .3125 μg/μl): 9 (91-100 percent mortality) | mortality rating (Melon Aphid; 5 ppm): 1.5 | mortality rating (Melon Aphid; 100 ppm): 9.5 | average mortality rating (Asparagus Beetles Adults [4]; 10 ppm): 7 | average mortality rating (Asparagus Beetles Adults [4]; 25 ppm): 8 | average mortality rating (Asparagus Beetles Adults [4]; 50 ppm): 9 (91-100 percent mortality) | insect mortality rating (Boll Weevil; .15625 μg/μl): 9 (91-100 percent mortality) | average mortality rating ([5]; 10 ppm): 3 | average mortality rating ([5]; 25 ppm): 1 | average mortality rating ([5]; 50 ppm): 5 | average mortality rating ([5]; 100 ppm): 5 | average mortality rating ([6]; 25 ppm): 5 | average mortality rating ([6]; 50 ppm): 5 | average mortality rating ([6]; 100 ppm): 5 | average mortality rating (Aphids - Tulip Tree; 25 ppm): 6 | average mortality rating (Aphids - Tulip Tree; 50 ppm): 6 | average mortality rating (Aphids - Tulip Tree; 100 ppm): 8 | average mortality rating (Aphids - Apple; 25 ppm): 5 | average mortality rating (Aphids - Apple; 50 ppm): 5 | average mortality rating (Aphids - Apple; 100 ppm): 7 | average mortality rating ([7]; 10 ppm): 9 (91-100 percent mortality) | average mortality rating ([7]; 25 ppm): 9 (91-100 percent mortality) | average mortality rating ([7]; 50 ppm): 7 | average mortality rating ([7]; 100 ppm): 8 | average mortality rating (Alfalfa Weevil Larvae [8]; 125 ppm): 1 | average mortality rating (Alfalfa Weevil Larvae [8]; 250 ppm): 4 | average mortality rating (Alfalfa Weevil Larvae [8]; 500 ppm): 3 | average mortality rating (Aphids - Sour Gum; 25 ppm): 1 | average mortality rating (Aphids - Sour Gum; 50 ppm): 3 | average mortality rating (Aphids - Sour Gum; 100 ppm): 5 | average mortality rating (Asparagus Beetles Adults [9]; 5 ppm): 3 | average mortality rating (Asparagus Beetles Adults [9]; 10 ppm): 5 | average mortality rating (Asparagus Beetles Adults [9]; 25 ppm): 9 (91-100 percent mortality) | average mortality rating (Meadow Spittlebug; 10 ppm): 1 | average mortality rating (Meadow Spittlebug; 25 ppm): 2 | average mortality rating (Meadow Spittlebug; 50 ppm): 3 | average mortality rating (Meadow Spittlebug; 100 ppm): 1

mixture of methyl 2,6-bis(trifluoromethyl)-4-nitro-1-benzimidazolecarboxylate and methyl 2,5-bis(trifluoromethyl)-7-nitro-1-benzimidazolecarboxylate
mortality rating (House Fly; 10 ppm): 0 (0-10) | mortality rating (House Fly; 25 ppm): 0 (0-10) | mortality rating (House Fly; 50 ppm): 9 (91-100) | mortality rating (House Fly; 100 ppm): 9 (91-100) | mortality rating (House Fly; 250 ppm): 9 (91-100) | mortality rating (House Fly; 500 ppm): 9 (91-100) | mortality rating (House Fly; 1000 ppm): 9 (91-100) | average mortality rating (Squash Bug Adults; 125 ppm): 0 (0-10 percent) | average mortality rating (Squash Bug Adults; 250 ppm): 0 (0-10 percent) | average mortality rating (Squash Bug Adults; 500 ppm): 2 | average mortality rating (Squash Bug Adults; 750 ppm): 3 | average mortality rating (Alfalfa Weevil Larvae [1]; 0.03 μg/μl): 2 | average mortality rating (Alfalfa Weevil Larvae [1]; 0.07 μg/μl): 1 | average mortality rating (Alfalfa Weevil Larvae [1]; 0.1 μg/μl): 4 | insect mortality rating (Picnic Beetle [2]): 9 (91-100 percent mortality) | insect mortality rating (Milkweed Beetle): 9 (91-100 percent mortality) | insect mortality rating (Picnic Beetle [3]): 9 (91-100 percent mortality) | mortality rating (Melon Aphid; 25 ppm): 0 (0-10) | mortality rating (Melon Aphid; 50 ppm): 2 (21-30) | mortality rating (Melon Aphid; 100 ppm): 4 (41-50) | mortality rating (Melon Aphid; 250 ppm): 9 (91-100) | mortality rating (Melon Aphid; 500 ppm): 9 (91-100) | mortality rating (Melon Aphid; 1000 ppm): 9 (91-100) | average mortality rating (Asparagus Beetles Adults [4]; 10 ppm): 3 | average mortality rating (Asparagus Beetles Adults [4]; 25 ppm): 8 | average mortality rating (Asparagus Beetles Adults [4]; 50 ppm): 9 (91-100 percent mortality) | insect mortality rating (Boll Weevil; .078125 μg/μl): 9 (91-100 percent mortality) | average mortality rating ([5]; 10 ppm): 2 | average mortality rating ([5]; 25 ppm): 0 (0-10 percent) | average mortality rating ([5]; 50 ppm): 5 | average mortality rating ([5]; 100 ppm): 9 (91-100 percent mortality) | average mortality rating ([6]; 25 ppm): 3 and 4 | average mortality rating ([6]; 50 ppm): 4 | average mortality rating ([6]; 100 ppm): 6 | average mortality rating (Alfalfa Weevil Larvae [8]; 125 ppm): 7 | average mortality rating (Alfalfa Weevil Larvae [8]; 250 ppm): 6 | average mortality rating (Alfalfa Weevil Larvae [8]; 500 ppm): 3 | average mortality rating (Asparagus Beetles Adults [9]; 5 ppm): 5 | average mortality rating (Asparagus Beetles Adults [9]; 10 ppm): 5 | average mortality rating (Asparagus Beetles Adults [9]; 25 ppm): 9 (91-100 percent mortality) | average mortality rating (Meadow Spittlebug; 100 ppm): 5
